Reference: PMC3334291 (Biochemistry, 2012)

What was measured:
[1] = molecular target: MelBSt (melibiose permease of Salmonella typhimurium) (Salmonella enterica, UniProt P30878, L5M); settings: read-out: WT; 20 mM NaCl, 10 μM D2G, 100 mM KPi pH 7.5; sugar site, competitive
[2] = molecular target: MelBSt (melibiose permease of Salmonella typhimurium) (Salmonella enterica, UniProt P30878, L5M/G117A); settings: read-out: G117A; 20 mM NaCl, 10 μM D2G, 100 mM KPi pH 7.5; sugar site, competitive

With `OC[C@H]1O[C@H](OC[C@H]2OC(O)[C@H](O)[C@@H](O)[C@@H]2O)[C@H](O)[C@@H](O)[C@H]1O` (some centres unmarked) [melibiose] the IC50 [1] was 3.8 mM and the IC50 [2] was 8.1 mM.
